Drawing on a melting point compilation (Tetko et al.; mined from patent text by program, amines drawn as free bases though some values may be those of a salt), this text covers melting point for 88 compounds.

For `COc1ccc(C(=O)Nc2nc(=O)c3cnn4c3n2CC=C4c2cccc(C(F)(F)F)c2)cc1`, the melting point – broadly, the temperature, or range, at which the solid turns liquid – is 271 to 273 °C.
Turning to `CCCCCCCCCCCCCCCCOc1ccc(OCC(=O)Nc2cccc(CBr)c2)cc1`, the melting point lay within 183 to 186 °C.
The compound `NNc1nnc(Cl)cc1C(=O)O` had a melting point of 198 to 201 °C.
Take `CC1(C)Nc2ccccc2-n2cnc(-c3nc(C4CC4)no3)c21`: the melting point was 175 to 179 °C.
Compound `CC12CCC3C(CC(O)C4(O)CC=CCC34C)C1CC=C2Br` (stereo not drawn) had a melting point of 170 to 175 °C.
`CCc1cc2c(cc(C(N)=O)c(=O)n2Cc2ccc(-c3ccccc3-c3nnn(C(c4ccccc4)(c4ccccc4)c4ccccc4)n3)cc2)c(CC)n1` came in with a melting point of 162 to 165 °C.
In the case of `Cc1c(-c2cncc(CO)c2)ccc2c(=O)c(C(=O)O)cn(C3CC3)c12`, the melting point fell in the range of 221 to 223 °C.
On to `COc1cc(C(=O)CCCN2CCC(OC(=O)c3cc(Cl)c(N)c4c3OC(C)(C)C4)CC2)cc(OC)c1OC`, for which the melting point was found to be 154 °C.
`CCOC(=O)C(=Cc1cccn2c(Br)cnc12)N=[N+]=[N-]` came in with a melting point of 90 to 92 °C.
With `CN(CCOC1CCCCO1)c1cc(NC(=O)OC(C)(C)C)c([N+](=O)[O-])cc1C#Cc1ccc(F)cc1` (racemic), the melting point was determined as 134 °C.
The compound `CCCCCCCCCCCCCC(C)Oc1c(I)cc(I)cc1I` (stereo not drawn) came in with a melting point of 56 to 58 °C.
`Nc1nccc(OCc2ccccc2)c1[N+](=O)[O-]` came in with a melting point of 145 to 147 °C.
Compound `c1ccc(C(c2ccccc2)N2CCN(CCCCCCNc3ccc4nncn4n3)CC2)cc1` returned a melting point of 133 to 139 °C.
In turn, `CN(C)CCn1c2ccccc2c(=NN=C2NCCS2)c2ccccc21` had a melting point of 192 to 194 °C.
`Cc1cccc(OCCOS(N)(=O)=O)c1` registered a melting point of 76 to 78 °C.
The same measure for `Cc1coc2c1C(=O)CC(c1ccco1)C2` (stereo not drawn): 60 to 61 °C; for `COc1cn(C(C)C)c(=O)o1`: 108 to 110 °C; for `CCOC(=O)C1(NC(C)=O)CC(C)(C)NC(C)(C)C1`: 108 to 109 °C.
`COc1ccc(S(=O)(=O)C[N+](=O)[O-])c2ccccc12` came in with a melting point of 109 to 110 °C.
Take `COc1cc2c(Cl)c(C#N)cnc2cc1N1CCN(C)CC1`: the melting point lay within 177 to 179 °C.
For `C(=C\c1nc(COc2ccc(CCCCCn3ccnc3)cc2)co1)/c1ccccc1`, the melting point lay within 101 to 102 °C.
`CN(C)CC(c1ccccc1)c1nnc2n1-c1ccc(Cl)cc1C(c1ccccc1)=NC2` (stereo not drawn) yielded a melting point of 168 to 170 °C.
Consider `CC=CCNc1cc(C(=O)O)cc(S(N)(=O)=O)c1Oc1ccc(NC(C)=O)cc1`, for which the melting point fell in the range of 255 to 257 °C.
Consider `COc1nc2ccccc2nc1NC(=O)N1CCN(c2ccccc2F)CC1`, for which the melting point lay within 142 to 144 °C.
Take `O=C(Cc1cccc(C(F)(F)F)c1)N1CCc2cc3c(cc2CC1)OCO3`: the melting point fell in the range of 102 to 104 °C.
`Cc1cc(C(=O)Nc2ccc(S(=O)(=O)C(F)(F)F)cc2Cl)c(O)c(C23CC4CC(CC(C4)C2)C3)c1` registered a melting point of 203 to 204 °C.
The compound `COC(=O)C(=O)c1ccc(NC(=O)COc2ccc3ccccc3c2)cc1` displayed a melting point of 175 to 176 °C.
As to `COC(=O)c1ccc(Cn2nc(-c3ccc(OC)cc3)c(-c3ccc(OC)cc3)cc2=O)cc1`, the melting point lay within 186 to 187 °C.
Take `N#Cc1cccc(-n2cc(-c3ccccn3)cn2)n1`: the melting point lay within 260 to 261 °C.
Turning to `CC(=O)Nc1nc(-c2cccc3ccccc23)co1`, the melting point lay within 188 to 190 °C.
The same measure for `Cn1nccc(N)c1=O`: 191 to 192 °C.
The figure for `CCC1(C)OC1(C#N)C(=O)O` (stereo not drawn) is 139 to 140 °C; for `CC(=O)Nc1cccc(Oc2ccn3nc(-c4ccccc4)c(-c4ccc(=O)n(C(C)C)n4)c3c2)c1` it is 178 °C.
`Oc1ccc([C@H]2CC[C@@H](NCCOc3ccccc3)CC2)cc1` had a melting point of 149 to 154 °C.
The compound `Cc1c(N)cccc1-c1cn(C)c(=O)c(Nc2ccc(C3C(=O)N(C)CCN3C)cc2)n1` (stereo not drawn) had a melting point of 133 to 134 °C.
Consider `C=CCOC(=O)c1ccc(-c2ccc3cc(C(=O)OCC)c(C45CC6CC(CC(C6)C4)C5)cc3c2OCCCCC)cc1`, for which the melting point was 116 to 117 °C.
On to `CCOc1nn(Cc2ccc(OCCn3ncc4ccccc4c3=O)cc2)cc1CCC(=O)O`, for which the melting point was in the range of 152 to 153 °C.
On to `Cc1cc(Cc2ccccc2)c(NS(=O)(=O)Cc2ccccc2)c(=O)n1CC(=O)O`, for which the melting point was greater than 200 °C.
As to `COc1cc2c(cc1OCc1ccccc1)ncc1c(N)nc(-n3ccnc3)cc12`, the melting point turned out to be 140 °C.
As for `COc1ccc(O)c(CSc2nc(C)cn2C)c1`, the melting point was in the range of 111 to 112 °C.
In turn, `CNC(=O)NCCN1CCC(Nc2nc3ccccc3n2Cc2cnc(C)o2)CC1` displayed a melting point of 203 °C.
On to `CC(C)(C)OC(=O)NNc1cccc([N+](=O)[O-])c1`, for which the melting point worked out at 105 °C.
With `Cc1ccc(NC(=S)NC(=O)c2ccccc2)c(Cl)c1`, the melting point stood at 143 °C.
Compound `O=P(Oc1ccc(S(=O)(=O)c2ccc(OP(=O)(c3ccccc3)c3ccccc3)cc2)cc1)(c1ccccc1)c1ccccc1` registered a melting point of 210 to 211 °C.
Compound `CCC[C@@H]1COC(=O)N1c1nc(-c2ccc(Br)cc2)cs1` displayed a melting point of 114 to 116 °C.
In turn, `CCOC(=O)c1cn2c(nc1=O)CCC2` yielded a melting point of 59 to 60 °C.
Compound `CCC(CC)Nc1cc(C)nc(Cl)c1C(=O)OC` gave a melting point of 82 to 84 °C.
The figure for `Cc1nc2cnc3ccc(Cl)cc3c2n1-c1ccccc1Cl` is 178 °C; for `CCNC(=S)Nc1nc2ccc(OC(F)(F)F)cc2s1` it is 199 to 200 °C.
Compound `CSC1CC(=O)N1CC(=O)c1ccccc1` (stereo not drawn) showed a melting point of 43 to 45 °C.
`Cc1sc(C)c(NC(=S)Nc2c(Cl)cccc2Cl)c1N` came in with a melting point of 143 to 148 °C.
Consider `Cc1ccc(-c2c(Cl)ncn2-c2ccc(S(C)(=O)=O)cc2)cc1Cl`, for which the melting point lay within 181 to 182 °C.
The figure for `CCOC(=O)c1cc2c3ccccc3n(Cc3ccccc3)c2nc1N1CCOCC1` is 151 to 152 °C; for `COc1nc(Cl)nc2c1c(C#N)cn2C1OC(CO)C(O)C1O` (stereo not drawn) it is 194 to 195 °C.
The compound `O=CNCC=C(c1ccc(-c2ccccc2)cc1)c1ccc(-c2ccccc2)cc1` showed a melting point of 171 to 173 °C.
Turning to `CCc1cc(O)n2ncc(CC)c2n1`, the melting point is greater than 310 °C.
The same measure for `CCOc1cc(C(CC(N)=O)N2Cc3ccccc3C2=O)ccc1OC` (stereo not drawn): 169 °C; for `CCCc1cc(-c2ccc(F)c3ccccc23)nc(N)n1`: 137 °C.
`CCCOc1cccc(C(NC2CCN(C)CC2)c2nc3ccccc3s2)c1` (stereo not drawn): the melting point was 90 °C.
`COC(=O)c1ccc(C(=O)Nc2c(C)c(C)c3c(c2C)C(c2ccc(C(C)C)cc2)C(C)(C)O3)cc1` (stereo not drawn) displayed a melting point of 220 to 223 °C.
In the case of `OCC1OC(c2c(Cl)nc3cc(Cl)c(Cl)cn23)C(O)C1O` (stereo not drawn), the melting point lay in the range of 239 to 240 °C.
For `CC(C)(C)c1ccc(OCC(=O)NCc2ccc(NS(C)(=O)=O)cc2)cc1`, the melting point stood at 163 °C.
The same measure for `Cc1c(C(=O)O)ccc2c1C(Cl)C(Cl)CS2(=O)=O` (stereo not drawn): 236 to 244 °C; for `CCOC(=O)C1[C@@H]2[C@@H](O)[C@@H]3O[C@H](c4ccc(F)cc4F)OC[C@H]3O[C@H]12` (stereo partly drawn): 130 to 133 °C.
Regarding `CNC(=O)C(=NOC)c1ccccc1COc1ncc(Sc2ccccc2)cc1Cl`, the melting point was in the range of 84 to 86 °C.
For `O=C1Cc2cc(C(=O)N3CCN(C(=O)c4ccccc4)CC3)ccc2N1`, the melting point was 268 to 270 °C.
For `CCOc1ncc(C(C)=O)cc1C(=O)Nc1c(C(N)=O)n[nH]c1CC`, the melting point was in the range of 217 to 219 °C.
`O=C(O)c1ccc(CCc2ccc(NC(=O)C3CSc4ccccc4C3=O)cc2)cc1` (stereo not drawn) came in with a melting point of 256 to 259 °C.
`O[C@@H]1CN(C[C@H](O)c2ccccc2)CC[C@H]1CCOC(c1ccccc1)c1ccccc1` yielded a melting point of 84 to 86 °C.
`COc1nc(O)nn1C(C)C` came in with a melting point of 102 to 103 °C.
The same measure for `COC(=O)c1ccc(-c2ccc(NC(=O)c3ccc(OC)c(CCCN(C)C)c3)cc2)cc1`: 188 to 192 °C; for `Nc1ccc2oc(=O)c(N)cc2c1`: 183 to 186 °C; for `O=C(NC1CSc2ccccc2NC1=O)OCc1ccccc1` (stereo not drawn): 149 to 151 °C.
`CCCc1cc(C(O)=S)cc(N)c1C(=O)c1ccccc1` returned a melting point of 124 to 126 °C.
The same measure for `COc1ccc(-c2cc(-c3ccccc3)[nH]c2C(=O)Nc2cccc(CC(=O)NO)c2)cc1`: 205 to 206 °C; for `Nc1cccc2c1CCN(C(=O)C(F)(F)F)CC2`: 85 to 88 °C; for `O=CCC(=O)Nc1ccccc1`: 150 to 153 °C.
As for `CCN(CC)C(=O)CNc1cc(N)ccc1OC`, the melting point came out at 111 °C.
`CC(C)(C)CC(C)(C)Nc1nc(NC(C)(C)CC(C)(C)C)nc(N2CC3CCC(CC3)C2)n1` came in with a melting point of 126 to 127 °C.
The same measure for `CCCCCCCCCCCCCCCCNC(=O)c1cc(OCCN=C=S)c2ccccc2c1O`: 90 to 91 °C.
`CCOCc1nc2c(N)nc3c(c2n1NC(C)C)CCCC3` displayed a melting point of 144 to 146 °C.
As to `CC(C)c1ccc(-c2ccc(F)cc2)n1C(C)CC1CC(O)CC(=O)O1` (stereo not drawn), the melting point fell in the range of 167 to 169 °C.
The compound `CC(=NNc1ccc(Cl)c2c1CC(C)O2)C(=O)O` (stereo not drawn) had a melting point of 155 to 157 °C.
The figure for `Cc1cc(-c2ncn3c(C(F)(F)F)cc(-c4ccc(C(F)(F)F)cc4)nc23)ccn1` is 257 °C; for `CC(CO)C(O)(Cn1cncn1)c1ccc(Cl)cc1Cl` (single isomer, unassigned; (+)) it is 110 to 111 °C; for `CC1Cc2c(O)cc(C(=O)O)cc2O1` (stereo not drawn) it is 181 to 184 °C.
`CC(=O)c1ccc(OC(=O)c2c3ccccc3nc3ccccc23)cc1` gave a melting point of 214 to 215 °C.
`Cc1csc(CC(=O)O)c1` yielded a melting point of 49 °C.
